Results from ChEMBL document CHEMBL1201862, “PubChem BioAssay data set” (2004).
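A five-concentration, 48-hour dose response in 96-well plates underlies each endpoint, interpolated linearly between surrounding concentrations. Abbreviation: GI50, concentration required for 50% inhibition of growth.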 Calls of active or inactive are those of the source. No stated cut-off is given here; in the data, active = GI50 up to about 1.1 µM and inactive = higher.

Key:
Assay in all cases: inhibition of tumour cell growth, NCI panel, 48 h
[1] = tested on: 786-0
[2] = tested on: BT-549
[3] = tested on: CAKI-1
[4] = tested on: HT-29
[5] = tested on: Hs-578T
[6] = tested on: K562
[7] = tested on: KM12
[8] = tested on: LOX IMVI
[9] = tested on: M14
[10] = tested on: MDA-MB-435
[11] = tested on: NCI-H226
[12] = tested on: NCI-H522
[13] = tested on: OVCAR-5
[14] = tested on: OVCAR-8
[15] = tested on: RXF 393
[16] = tested on: SF-295
[17] = tested on: SK-MEL-2
[18] = tested on: SN12C
[19] = tested on: SW-620
[20] = tested on: UACC-62

| SMILES | GI50 [1] | GI50 [2] | GI50 [3] | GI50 [4] | GI50 [5] | GI50 [6] | GI50 [7] | GI50 [8] | GI50 [9] | GI50 [10] | GI50 [11] | GI50 [12] | GI50 [13] | GI50 [14] | GI50 [15] | GI50 [16] | GI50 [17] | GI50 [18] | GI50 [19] | GI50 [20] |
| --- | --- | --- | --- | --- | --- | --- | --- | --- | --- | --- | --- | --- | --- | --- | --- | --- | --- | --- | --- | --- |
| Cc1c2cnccc2c(C)c2c1[nH]c1ccc(O)cc12 | 0.241 µM (active) | 6.01 µM (inactive) | 1.43 µM (inactive) | 1.51 µM (inactive) | > 10 µM (inactive) | 3.17 µM (inactive) | 0.962 µM (active) | 0.342 µM (active) | 1.57 µM (inactive) | 1.78 µM (inactive) | 0.328 µM (active) | 2.82 µM (inactive) | 2.4 µM (inactive) | 0.607 µM (active) | 1.53 µM (inactive) | 1.06 µM (active) | 6.25 µM (inactive) | 1.12 µM (inactive) | 0.989 µM (active) | 7.76 µM (inactive) |
| CC(C)(C)c1cc(C(CO)OCCOCCO)cc(C(C)(C)C)c1O (centres undefined) | > 100 µM (inactive) | > 100 µM (inactive) | > 100 µM (inactive) | > 100 µM (inactive) | > 100 µM (inactive) | > 100 µM (inactive) | > 100 µM (inactive) | > 100 µM (inactive) | > 100 µM (inactive) | > 100 µM (inactive) | > 100 µM (inactive) | > 100 µM (inactive) | > 100 µM (inactive) | > 100 µM (inactive) | > 100 µM (inactive) | > 100 µM (inactive) | > 100 µM (inactive) | > 100 µM (inactive) | > 100 µM (inactive) | > 100 µM (inactive) |
| N#CC12C(=O)N3C(=NC(c4ccco4)NC3c3ccco3)C1(C#N)C(c1ccco1)NC1=C2CCCC1 (centres undefined) | > 100 µM (inactive) | > 100 µM (inactive) | > 100 µM (inactive) | > 100 µM (inactive) | > 100 µM (inactive) | > 100 µM (inactive) | > 100 µM (inactive) | > 100 µM (inactive) | > 100 µM (inactive) | > 100 µM (inactive) | > 100 µM (inactive) | 73.1 µM (inactive) | > 100 µM (inactive) | > 100 µM (inactive) | > 100 µM (inactive) | > 100 µM (inactive) | > 100 µM (inactive) | > 100 µM (inactive) | > 100 µM (inactive) | > 100 µM (inactive) |
| COCN1C(=O)[C@@H]2CCCN2C(=O)c2ccc(N)cc21 | > 100 µM (inactive) | > 100 µM (inactive) | > 100 µM (inactive) | > 100 µM (inactive) | > 100 µM (inactive) | > 100 µM (inactive) | > 100 µM (inactive) | > 100 µM (inactive) | > 100 µM (inactive) | > 100 µM (inactive) | > 100 µM (inactive) | > 100 µM (inactive) | > 100 µM (inactive) | > 100 µM (inactive) | > 100 µM (inactive) | > 100 µM (inactive) | > 100 µM (inactive) | > 100 µM (inactive) | > 100 µM (inactive) | > 100 µM (inactive) |
| Cc1nnc(N)s/c1=N/O | > 100 µM (inactive) | > 100 µM (inactive) | > 100 µM (inactive) | > 100 µM (inactive) | > 100 µM (inactive) | > 100 µM (inactive) | > 100 µM (inactive) | > 100 µM (inactive) | > 100 µM (inactive) | > 100 µM (inactive) | > 100 µM (inactive) | > 100 µM (inactive) | > 100 µM (inactive) | > 100 µM (inactive) | > 100 µM (inactive) | > 100 µM (inactive) | > 100 µM (inactive) | > 100 µM (inactive) | > 100 µM (inactive) | > 100 µM (inactive) |
| CCOP1(=O)CC(C)=C(Cl)C(OC)C1 (centres undefined) | > 100 µM (inactive) | > 100 µM (inactive) | > 100 µM (inactive) | > 100 µM (inactive) | > 100 µM (inactive) | 30.5 µM (inactive) | > 100 µM (inactive) | 61.7 µM (inactive) | > 100 µM (inactive) | > 100 µM (inactive) | > 100 µM (inactive) | 34 µM (inactive) | > 100 µM (inactive) | > 100 µM (inactive) | > 100 µM (inactive) | > 100 µM (inactive) | > 100 µM (inactive) | > 100 µM (inactive) | > 100 µM (inactive) | > 100 µM (inactive) |
| O=C1OCC2OC(=O)c3cc(O)c(O)c(O)c3-c3c(O)c(O)c(O)c4c3C(=O)OC(C2OC(=O)c2cc(O)c(O)c(O)c2-c2c1cc(O)c(O)c2O)C1OC(=O)c2c-4c(O)c(O)c(O)c2[C@@H]1C(O)C(O)C(O)C(O)CO (some centres undefined) | 17.4 µM (inactive) | 22.8 µM (inactive) | 13.6 µM (inactive) | 14.4 µM (inactive) | 27.9 µM (inactive) | 10.5 µM (inactive) | 22 µM (inactive) | 2.25 µM (inactive) | 17.8 µM (inactive) | 4.42 µM (inactive) | 17.6 µM (inactive) | 18.8 µM (inactive) | 16 µM (inactive) | 23.3 µM (inactive) | 19.3 µM (inactive) | 20.1 µM (inactive) | 21.6 µM (inactive) | 16 µM (inactive) | 19.5 µM (inactive) | 17.8 µM (inactive) |
| COc1ccc(C2C3CCc4ccccc4C3=NN2S(=O)(=O)c2ccc(Cl)cc2)cc1 (centres undefined) | 6.93 µM (inactive) | 44.7 µM (inactive) | 16.2 µM (inactive) | 18.1 µM (inactive) | 33 µM (inactive) | 4.98 µM (inactive) | 7.08 µM (inactive) | 22.8 µM (inactive) | 18.3 µM (inactive) | 2.07 µM (inactive) | 20.7 µM (inactive) | 9.14 µM (inactive) | 47.6 µM (inactive) | 41.6 µM (inactive) | 12.1 µM (inactive) | 18.2 µM (inactive) | 28.4 µM (inactive) | 37 µM (inactive) | 23.2 µM (inactive) | 13.1 µM (inactive) |
| CNc1ccc2nc(-c3ccc(OC(=O)N(C)C)cc3)cn2c1 | 14.5 µM (inactive) | 17.8 µM (inactive) | 21.4 µM (inactive) | 17.7 µM (inactive) | 41.2 µM (inactive) | 21 µM (inactive) | 17.1 µM (inactive) | 17.7 µM (inactive) | 19.2 µM (inactive) | 17 µM (inactive) | 20.8 µM (inactive) | 13.7 µM (inactive) | 22.9 µM (inactive) | 15.7 µM (inactive) | 13.3 µM (inactive) | 17.7 µM (inactive) | 14 µM (inactive) | 14.1 µM (inactive) | 22.8 µM (inactive) | 18.8 µM (inactive) |
| COC(=O)[C@]1(C)CCC[C@@]2(C)[C@@H]3C[C@@H]4[C@H]5C[C@@]3(CC[C@@H]21)C[C@@]45C | 16.1 µM (inactive) | 16.5 µM (inactive) | 16.4 µM (inactive) | 14.5 µM (inactive) | 20.5 µM (inactive) | 0.643 µM (active) | – | 19.7 µM (inactive) | 20.7 µM (inactive) | 18.3 µM (inactive) | 15.8 µM (inactive) | 16.8 µM (inactive) | 18 µM (inactive) | 16.4 µM (inactive) | 17.1 µM (inactive) | 15.2 µM (inactive) | 16.4 µM (inactive) | 19.2 µM (inactive) | 24.3 µM (inactive) | 14.8 µM (inactive) |
